Measured values published in ChEMBL document CHEMBL5137017, “Identification of NVP-CLR457 as an Orally Bioavailable Non-CNS-Penetrant pan-Class IA Phosphoinositol-3-Kinase Inhibitor” (J Med Chem, 2022).
Where “and” joins values, the source holds several entries; their conditions need not be identical. Identical values can stand only once. Calls of active or inactive are those of the source. No cut-off for these calls is given here.

Experiments:
cells = details: Rattus norvegicus, Rat1, 1 h
[1] = Brain to blood ratio in OF1 mouse at 1 mg/kg, iv measured at 1 hr post dose by LC-MS/MS analysis; format: ADME, organism-based; details: brain and blood, read-out: BBR
[2] = Brain to blood ratio in OF1 mouse at 1 mg/kg, iv measured at 5 mins post dose by LC-MS/MS analysis; format: ADME, organism-based; details: brain and blood, read-out: BBR
Tubulin (Homo sapiens) [3] = target: T1, Tubulin (Homo sapiens) (UniProt P68371+Q9H4B7+P0DPH7+P68366+Q13509+Q71U36+P04350+Q3ZCM7+P07437+P68363+Q9BQE3+Q6PEY2+Q13885+Q9BVA1+Q9BUF5); assay: Binding affinity to tubulin in human A2058 cells assessed as condensed DNA score at 5 uM measured after 6 hrs by DiffQuick staining based microscopic analysis; format: cell-based
Tubulin (Homo sapiens) [4] = target: T1, Tubulin (Homo sapiens); assay: Binding affinity to tubulin in human A2058 cells assessed as condensed DNA score at 5 uM measured after 24 hrs by DiffQuick staining based microscopic analysis; format: cell-based
[5] = target: T2, Serine/threonine-protein kinase mTOR (Homo sapiens, UniProt P42345); assay: Displacement of Alexa Fluor labelled Tracer-314 from human N-terminal GST-tagged mTOR incubated for 1 hr by TR-FRET assay
[6] = target: T2, Serine/threonine-protein kinase mTOR; assay: Binding affinity to human N-terminal GST-tagged mTOR assessed as phosphorylated 4EBP1 by TR-FRET assay
Rat1 [7] = assay: Antitumor activity at rat Rat1 cells expressing myr-p110delta xenografted in athymic nude mouse assessed as T/C ratio at 30 mg/kg, po bid measured after 7 to 15 days; format: functional; details: time 7-15 day
Tubulin (Sus scrofa) = Tubulin (Sus scrofa) (UniProt P02554+P02550); assay: Inhibition of porcine tubulin polymerization assessed as inhibition of microtubule polymerization at 15 to 30 uM measured after 1 hr; format: protein assay; details: dose 15-30 µM, DDE = dose-dependent effect
Tubulin (Sus scrofa), sequence (P02550 whole entry, looked up): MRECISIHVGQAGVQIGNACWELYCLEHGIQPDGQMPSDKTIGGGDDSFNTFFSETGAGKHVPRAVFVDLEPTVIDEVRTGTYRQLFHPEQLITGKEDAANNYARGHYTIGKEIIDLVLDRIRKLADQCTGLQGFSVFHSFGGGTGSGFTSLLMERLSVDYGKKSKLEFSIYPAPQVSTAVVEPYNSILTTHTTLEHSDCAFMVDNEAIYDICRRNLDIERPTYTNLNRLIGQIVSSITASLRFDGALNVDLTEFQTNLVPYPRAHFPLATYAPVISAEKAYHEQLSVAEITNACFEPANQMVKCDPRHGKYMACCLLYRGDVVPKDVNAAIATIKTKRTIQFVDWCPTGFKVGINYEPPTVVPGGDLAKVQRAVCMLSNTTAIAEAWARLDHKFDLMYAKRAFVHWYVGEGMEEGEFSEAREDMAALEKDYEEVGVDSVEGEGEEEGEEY
Tubulin (Sus scrofa), sequence (P02554 whole entry, looked up): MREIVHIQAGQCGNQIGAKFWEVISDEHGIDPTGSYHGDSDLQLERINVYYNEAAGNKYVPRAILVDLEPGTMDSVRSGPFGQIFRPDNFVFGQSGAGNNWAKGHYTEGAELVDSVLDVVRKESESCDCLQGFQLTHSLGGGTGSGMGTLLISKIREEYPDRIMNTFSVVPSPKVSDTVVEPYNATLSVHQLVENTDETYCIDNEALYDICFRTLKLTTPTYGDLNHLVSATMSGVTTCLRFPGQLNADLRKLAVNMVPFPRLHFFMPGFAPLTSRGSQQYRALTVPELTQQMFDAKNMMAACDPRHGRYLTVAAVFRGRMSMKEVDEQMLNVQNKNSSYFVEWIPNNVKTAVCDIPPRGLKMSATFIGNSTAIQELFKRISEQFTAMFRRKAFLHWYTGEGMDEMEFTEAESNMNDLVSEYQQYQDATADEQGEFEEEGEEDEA

A2780 = assay: Induction of cell cycle arrest in human A2780 cells assessed as G2/M marker expression level at 30 uM measured after 6 hr by immunofluorescence staining method; format: functional, cell-based
Rat1 [8] = assay: Antitumor activity at rat Rat1 cells expressing myr-p110alpha xenografted in athymic nude mouse assessed as T/C ratio at 20 mg/kg, po bid measured after 14 to 22 days; format: functional; details: time 14-22 day
Rat1 [9] = assay: Antitumor activity at rat Rat1 cells expressing myr-p110alpha xenografted in athymic nude mouse assessed as T/C ratio at 30 mg/kg, po bid measured after 14 to 22 days; format: functional; details: time 14-22 day
[10] = Toxicity in athymic nude mouse xenografted with rat Rat1 cells expressing myr-p110alpha assessed as body weight loss at 20 to 30 mg/kg, po bid measured for 7 to 15 days; format: organism-based; details: in vivo, dose lower 20 mg/kg, time lower 7 day, dose upper 30 mg/kg, time upper 15 day
[11] = Toxicity in athymic nude mouse xenografted with rat Rat1 cells expressing myr-p110delta assessed as drug tolerance at 20 mg/kg, po bid measured for 7 to 15 days; format: organism-based; details: in vivo, time 7-15 day
Rat1 [12] = assay: Antitumor activity at rat Rat1 cells expressing myr-p110delta xenografted in athymic nude mouse assessed as T/C ratio at 20 mg/kg, po bid measured after 7 to 15 days; format: functional; details: time 7-15 day
[13] = Toxicity in athymic nude mouse xenografted with rat Rat1 cells expressing myr-p110delta assessed as body weight loss at 30 mg/kg, po bid measured for 7 to 15 days; format: organism-based; details: in vivo, time 7-15 day
[14] = 1-octanol, logP of the compound at pH 7.4; format: physicochemical
[15] = Volume of distribution at steady state in Sprague-Dawley rat at 3 mg/kg, po or iv measured upto 24 hrs by LC-MS/MS analysis; format: ADME, organism-based; details: in vivo
[16] = Stability in rat liver microsomes assessed as hepatic extraction preincubated for 3 mins followed by NADPH addition and measured after 60 mins; format: ADME, Microsome; details: read-out: ERH
[17] = Oral bioavailability in Sprague-Dawley rat at 3 mg/kg measured for 0.25 to 24 hrs by LC-MS/MS analysis; format: ADME, organism-based; details: in vivo, time 0.25-24 hrs
[18] = Half life in Sprague-Dawley rat at 3 mg/kg, po or iv measured upto 24 hrs by LC-MS/MS analysis; format: ADME, organism-based; details: in vivo
[19] = AUC in Sprague-Dawley rat at 1 mg/kg, iv measured for 0.083 to 48 hrs by LC-MS/MS analysis; format: ADME, organism-based; design: time upper 48 hrs, dose 1 mg/kg, time lower 0.083 hrs, route iv; details: in vivo
[20] = Stability in human liver microsomes assessed as hepatic extraction preincubated for 3 mins followed by NADPH addition and measured after 60 mins; format: ADME, Microsome; details: read-out: ERH

| Structure (SMILES) | IC50 (cells) [nM] | Activity (Tubulin (Homo sapiens) [3]) [%] | Activity (Tubulin (Homo sapiens) [4]) [%] | IC50 [5] | other results |
| --- | --- | --- | --- | --- | --- |
| CNC(=O)N(C)c1cc(-c2cnc(N)cc2C(F)(F)F)nc(N2CCOCC2)n1 | 1300 |  |  |  | Kp at 1 h [1]: 0.86; Kp at 5 min [2]: 1.1 |
| N#Cc1cc(N)ncc1-c1cc(N2CCOC(CCO)C2)nc(N2CCOCC2)n1 (racemic) | 2520 |  |  |  | Kp at 1 h [1]: 0.12; Kp at 5 min [2]: 0.2 |
| Nc1cc(C(F)(F)F)c(-c2cc(N3CCOC[C@H]3CO)nc(N3CCOCC3)n2)cn1 | 8020 |  |  |  | Kp at 1 h [1]: 0.21; Kp at 5 min [2]: 0.31 |
| Nc1ncc(-c2cc(N3CCOCC3)nc(N3C(=O)OC[C@H]3CO)n2)c(C(F)(F)F)n1 | 180 |  |  | 5940 nM |  |
| Nc1cc(C(F)(F)F)c(-c2cc(N3CCS(=O)(=O)CC3)nc(N3CCOCC3)n2)cn1 | 5220 | < 2 | < 2 | 9100 nM and > 9100 nM | IC50 [6]: > 9100 nM |
| Nc1ncc(-c2cc(N3CCOCC3)nc(N3CCOCC3)n2)c(=O)[nH]1 | 481 | < 2 | < 2 |  | IC50 [6]: 440 nM |
| Nc1ncc(-c2cc(N3CCCOC3=O)nc(N3CCOCC3)n2)c(C(F)(F)F)n1 | 152 |  |  |  |  |
| Nc1cc(C(F)(F)F)c(-c2cc(N3CCOCC3)nc(N3CCOCC3)n2)cn1 [BUPARLISIB] |  | > 12 | > 12 |  | T/C (Rat1 [7]): 0.12; inhibition (Tubulin (Sus scrofa)): Dde; Activity (A2780): Active; Kp at 1 h [1]: 1.74; T/C (Rat1 [8]): -0.15; T/C (Rat1 [9]): -0.61; Activity [10]: -7%; Activity [11]: Toxic; Kp at 5 min [2]: 1.98; T/C (Rat1 [12]): 0.1; Activity [13]: -8% |
| Nc1ncc(-c2cc(N3CCOCC3)nc(N3CCOCC3)n2)c(C(F)(F)F)n1 | 191 | > 12 | > 12 | 2070 nM | IC50 [6]: 6310 nM |
| Nc1cc(C(F)(F)F)c(-c2cc(N3CCCC3=O)nc(N3CCOCC3)n2)cn1 | 267 |  |  | 4970 nM | logD [14]: 2.1 |
| Nc1cc(C(F)(F)F)c(-c2cc(NC(CO)Cc3ccccc3)nc(N3CCOCC3)n2)cn1 (racemic) | 9020 |  |  |  | Kp at 1 h [1]: 0.93; Kp at 5 min [2]: 1.2 |

The next lines start with results.

| IC50 (cells) [nM] | Activity (Tubulin (Homo sapiens) [3]) [%] | Activity (Tubulin (Homo sapiens) [4]) [%] | IC50 [5] | Structure (SMILES) | other results |
| --- | --- | --- | --- | --- | --- |
| 14 | < 2 | < 2 |  | Cn1c(=O)n(-c2ccc(C(C)(C)C#N)cc2)c2c3cc(-c4cnc5ccccc5c4)ccc3ncc21 [DACTOLISIB] |  |
| 137 |  |  | > 9100 nM | Nc1ncc(-c2cc(N3CCOC3=O)nc(N3CCOCC3)n2)c(C(F)(F)F)n1 |  |
| 100 |  |  | 3940 nM | C[C@H]1OC(=O)N(c2nc(-c3cnc(N)nc3C(F)(F)F)cc(N3CCOCC3)n2)[C@H]1CC#N |  |
| 63 |  |  | 5110 nM | C[C@H]1[C@H](CO)OC(=O)N1c1nc(-c2cnc(N)nc2C(F)(F)F)cc(N2CCOCC2)n1 |  |
| 81 |  |  |  | CC1(C)OC(=O)N(c2nc(-c3cnc(N)nc3C(F)(F)F)cc(N3CCOCC3)n2)[C@H]1CO |  |
| 44 | < 2 | < 2 |  | CS(=O)(=O)N1CCN(Cc2cc3nc(-c4cccc5[nH]ncc45)nc(N4CCOCC4)c3s2)CC1 [PICTILISIB] |  |
| 37 |  |  | 2580 nM | C[C@@H]1OC(=O)N(c2nc(-c3cnc(N)nc3C(F)(F)F)cc(N3CCOCC3)n2)[C@H]1CO | Vdss [15]: 3.9 L/kg; hepatic extraction ratio at 1 h [16]: 0.49; bioavailability [17]: 23%; half-life [18]: 5.2 h; AUC [19]: 0.708 µM·h; hepatic extraction ratio at 1 h [20]: 0.78 |
